Experimental data taken from US20130131178A1, “USE OF OXALOACETATE IN THE TREATMENT OF ISCHAEMIA” (UNIVERSIDADE DE SANTIAGO DE COMPOSTELA, priority 2010, published 2013).

Assays:
Assay type in all cases: in vivo, male Sprague-Dawley (SD) rats
blood glutamate levels [1] = test: Effect of oxaloacetate administration on blood glutamate and aspartate levels in healthy animals; design: effect on glutamate levels: dose or concentration left out as unconfirmed
Method: The oxaloacetate used (Sigma-Aldrich, Ref, 171263, 95%) was dissolved in saline solution to a concentration of 10 mg/mL and the pH adjusted to 7.4. […]
(§1) The study protocols for male Sprague-Dawley (SD) rats (Charles River Laboratories; France) weighing between 300 and 350 g were approved by the Animal Use and Care Committee at the Hospital de Santiago de Compostela.
Anaesthesia was induced by inhalation of 5% sevoflurane in a mixture of nitrous oxide and oxygen (70/30). A rectal temperature of 37.5° C. was maintained. Glucose levels (180-220 mg/dL) were analysed prior to the intervention.
(§2) Aspartate and glutamate levels in blood were analysed according to the method described in the following reference (White, J. A., R. J. Hart, and J. C. Fry, An evaluation of the Waters Pico-Tag system for the amino-acid analysis of food materials. J Automat Chem, 1986. 8(4): p. 170-7).
Likewise, no changes in aspartate levels were observed (FIG. 1b).
This increase in aspartate levels confirms that glutamate is being metabolised by the enzyme GOT as a result of oxaloacetate treatment.
The […] and aspartate levels in blood were established in a control group treated with saline.

blood glutamate levels [2] = test: Effect of oxaloacetate on blood glutamate levels in an animal model of focal ischaemia (MCAO); conditions: 3.5 mg/100 g IV 90 minutes post-occlusion, 4 hours post-occlusion
Method: The oxaloacetate used (Sigma-Aldrich, Ref, 171263, 95%) was dissolved in saline solution to a concentration of 10 mg/mL and the pH adjusted to 7.4. As the average weight of the experimental animals was 325 g and the dose administered was 3.5 mg/100 g body weight, each animal received an average volume of 1.2 mL of 10 mg/mL oxaloacetate.
as §1
Anaesthesia was induced by inhalation of 5% sevoflurane in a mixture of nitrous oxide and oxygen (70/30). A rectal temperature of 37.5° C. was maintained. Glucose levels (180-220 mg/dL) were analysed prior to the intervention. […]
as §2
Two groups were designed: an MCAO group treated with saline (control group) and an MCAO group treated with 3.5 mg/100 g oxaloacetate IV 90 minutes post-occlusion. The blood glutamate levels and infarct and oedema volumes were determined in both groups. […]

[3] = tested on: Middle cerebral artery occlusion (MCAO) model of cerebral ischaemia; test: Infarct and oedema volumes by magnetic resonance imaging in the MCAO model of cerebral ischaemia; conditions: 3.5 mg/100 g IV 90 minutes post-occlusion
Method: The oxaloacetate used (Sigma-Aldrich, Ref, 171263, 95%) was dissolved in saline solution to a concentration of 10 mg/mL and the pH adjusted to 7.4. As the average weight of the experimental animals was 325 g and the dose administered was 3.5 mg/100 g body weight, each animal received an average volume of 1.2 mL of 10 mg/mL oxaloacetate. The study protocols for male Sprague-Dawley (SD) rats (Charles River Laboratories; France) weighing between 300 and 350 g were approved by the Animal Use and Care Committee at the Hospital de Santiago de Compostela. Anaesthesia was induced by inhalation of 5% sevoflurane in a mixture of nitrous oxide and oxygen (70/30). A rectal temperature of 37.5° C. was maintained. Glucose levels (180-220 mg/dL) were analysed prior to the intervention. Middle cerebral artery occlusion (MCAO) was used as a model of cerebral ischaemia, as described in the literature (Longa, E. Z., et al., Reversible middle cerebral artery occlusion without craniectomy in rats. Stroke, 1989. 20(1): p. 84-91). […] The infarct and oedema volumes were determined by magnetic resonance imaging. […] The blood glutamate levels and infarct and oedema volumes were determined in both groups. […]

## O=C(O)CC(=O)C(=O)O [oxaloacetate]
Blood glutamate levels [1]; administration via bolus (IV)
  effect on glutamate levels: no effect
Blood glutamate levels [1]; healthy animals, 3.5 mg/100 g IV, two hours post-administration
  decrease in serum glutamate levels with respect to basal levels: 60%
Blood glutamate levels [2]
  drop of blood glutamate levels below basal levels: 50%
[3]; 24 hours post-ischaemia
  infarct volume smaller than in the control group: approximately 40%
[3]; at 7 days
  decrease of infarct volume: 80%
